Assay results taken from patent US8703988B2, “Self-assembled nanostructures” (Xerox Corporation, priority 2010, dated 2014).
Entries after “also recorded” stand apart in the source; their conditions may differ.

Legend:
[1] = Gelation test (gelator ability in solvents, vial inversion); assay type: physicochemical; set-up: key: I = insoluble; P = precipitate; S = solution; VS = viscous solution; G = gel; PG = partial gel; conditions: concentration in wt % in parentheses in each cell
Protocol: A number of characterization methods are useful for detecting and characterizing self-assembled nanostructures from alkylated derivatives of aromatic acids. The simplest test is to observe any changes in viscosity (rheology) of the liquid containing the alkylated compound relative to the neat liquid alone. […] The increase in viscosity and gelation of liquids is known to occur due to the presence and entanglement of long, 1D aggregates.
To vials with a screw cap lids (4 mL capacity) were added alkylated derivatives of aromatic acids as solids (1-100 mg) and a solvent (1 mL). The mixture was then sonicated and heated until clear solutions were obtained. After cooling and standing at room temperature for at least 30 min., the sample was inverted and inspected visually.

[2] = Self-assembled nanostructures observed by SEM and STEM; assay type: physicochemical
From the text: Microscopy techniques such as optical light microscopy, scanning electron microscopy (SEM), transmission electron microscopy (TEM), atomic force microscopy (AFM)/scanning probe microscopy (SPM), and fluorescence microscopy are useful for determining the size and morphology of the nano (and micro) structures formed from alkylated derivatives of aromatic acids. Samples are typically prepared by depositing a drop of the liquid composition containing the nanostructures onto an appropriate sample substrate such as a carbon film coated copper mesh TEM grid, removing the excess liquid by blotting with filter paper, and then allowing to dry prior to analysis. Dynamic light scattering is also useful for detecting the presence of particles between 1 nm and 1 μm in size, measuring the size/size distribution of the dispersed particles. Rheometry is useful for determining the viscoelastic properties and thermal phase transitions for compositions of the self-assembled nanostructures. X-ray diffraction is useful for characterizing the structure of the self-assembled nanostructures size as phase identification, crystallinity, phase transitions, crystal structure refinement and determination, and size and strain broadening of crystallite nanostructures. NMR spectroscopy is useful in detecting the formation intermolecular noncovalent interactions stabilizing the nanostructures, their diffusion properties, as well as phase transitions. UV-Vis can be used for detecting the presence of nanostructures as well as confirming the presence of intermolecular pi-stacking interactions. FT-IR spectroscopy is also useful for the detection of hydrogen-bonding interactions involved in stabilizing the self-assembled nanostructures. Differential Scanning calorimetry (DSC) is another useful characterization technique, which enables the identification of thermal phase transitions within the compositions containing the nanostructures.
This example describes the self-assembled nanostructures formed from alkylated derivatives of aromatic acids deposited onto substrates observed by Scanning Electron and Scanning Transmission Electron Microscopy (SEM and STEM, respectively).
Microscopy samples are prepared by mixing the alkylated derivatives of aromatic acids as solids with a solvent, subjecting the mixture to bath sonication, and then heating to form a clear solution. The solutions are then cooled to room temperature and allowed to age for desired periods of time prior to microscopy sample preparation. After cooling, the samples may be clear solutions, turbid colloidal solutions, or more opaque dispersions. Microscopy samples are prepared for analysis by depositing a drop on thin carbon film coated copper mesh grids, allowing the drop to remain on the film for a desired period of time, followed by wicking away the excess solvent with filter paper and allowing to dry. Table 5 summarizes examples of compositions containing nanostructures of alkylated derivatives of selected aromatic acids for this invention. FIGS. 1 to 7 show Scanning Electron Microscopy and Scanning Transmission Electron Microscopy images of the nanostructures formed from alkylated derivatives of selected aromatic acids.

[3] = solvent H2O, sonicated, heated, cooled, room temperature at least 30 min, vial inverted
[4] = Xylenes:THF (1:1), 1.3 mg/mL, fibrils
[5] = Toluene, 0.1 mg/mL, bundles of fibrils

gelator ability (state of sample) ([1]; solvent CHCl3) | gelator ability (state of sample) ([1]; solvent Ethylene Glycol) | gelator ability (state of sample) [1, 3] | gelator ability (state of sample) ([1]; solvent Hexadecane) | gelator ability (state of sample) ([1]; solvent Hexanes) | gelator ability (state of sample) ([1]; solvent MeOH) | gelator ability (state of sample) ([1]; solvent Toluene) | gelator ability (state of sample) ([1]; solvent Cyclohexane) | gelator ability (state of sample) ([1]; solvent Decalin) | gelator ability (state of sample) ([1]; solvent Dimethoxyethane) | gelator ability (state of sample) ([1]; solvent Xylenes) | Description (nanostructure) ([2]; Chloroform, 0.1 mg/mL) | L ([2]; Chloroform, 0.1 mg/mL, fibrils) | W ([2]; Chloroform, 0.1 mg/mL, fibrils) | Compound | also measured
I (0.1) | S (0.1) | I (0.1) | I (1.1) | I (0.1) | S | I (1.3) |  |  |  |  |  |  |  | CCCC(=O)Nc1cc(C(=O)O)cc(C(=O)O)c1 [compound 45, 5-(butyramido)isophthalic acid] | L [2, 4]: 50-1000 nm; W [2, 4]: 3-6 nm; L ([2]; Xylenes:THF (1:1), 1.3 mg/mL, sheets): 2000-10000 nm
G (0.4) | PG (2.0) | I (0.1) | G (1) | P (0.2), | S (0.1) | G (1.0) | G (1.0) | G (0.5) | G (0.6) | G (1) |  |  |  | CCCCCCCCCCCCC(CCCCCCCCCC)C(=O)Nc1cc(C(=O)O)cc(C(=O)O)c1 (stereo not shown) [compound 53, 5-(2-decyltetradecanamido)isophthalic acid] | gelator ability (state of sample) ([1]; solvent Benzene): G (0.4); gelator ability (state of sample) ([1]; solvent Dodecane): G (1); Description (nanostructure) ([2]; Toluene, 0.1 mg/mL): Bundles of fibrils; L [2, 5]: >1000 nm; W [2, 5]: 20-100 nm; L ([2]; Toluene, 0.1 mg/mL, fibrils): >1000 nm; W ([2]; Toluene, 0.1 mg/mL, fibrils): 5-10 nm
I (0.1) | P (0.5) | I (0.1) | I (0.1) |  | G (2.0) | I (0.1) |  | G (2.3) | S (1.0) | G (2.0) | Fibrils | >1000 nm | 5-10 nm | CCCCCCCCCCCCCCCCCCNC(=O)Nc1cc(C(=O)O)cc(C(=O)O)c1 [compound 56] | 
P (0.1) | P (2.5) | I (0.1) |  | I (0.1) | S (3.0) | I (0.5) | I (0.1) | I (2.0) | S (0.1) | I (2.0) | Fibrils | 50-1000 nm | 5-10 nm | CCCCCCCCCCCCC(CCCCCCCCCC)C(=O)Nc1cc(C(N)=O)cc(C(N)=O)c1 (stereo not shown) [compound 74, 5-(2-decyltetradecanamido)isophthalamide] | Description (nanostructure) ([2]; Chloroform, 1.0 mg/mL): Fibers; L ([2]; Chloroform, 1.0 mg/mL, fibers): 300-800 nm; W ([2]; Chloroform, 1.0 mg/mL, fibers): 25-200 nm; Description (nanostructure) ([2]; EtOH:H2O, 1.0 mg/mL): Fibers; also recorded: Fibrils; L ([2]; EtOH:H2O, 1.0 mg/mL, fibers): >5000 nm; W ([2]; EtOH:H2O, 1.0 mg/mL, fibers): 50-250 nm; L ([2]; EtOH:H2O, 1.0 mg/mL, fibrils): 10-100 nm; W ([2]; EtOH:H2O, 1.0 mg/mL, fibrils): 5-10 nm
